{"source": "the NIST ThermoML archive (doi:10.1016/j.jct.2008.09.020)", "details": "313.15 K; Liquid; Ebulliometric method (Recirculating still)", "note": "Values joined by “and” are separate entries in the source; they are usually repeats but may differ in a detail not shown here. Equal entries are not always repeated. Numbers after ± are expanded uncertainties."}
{"smiles": "CCOC(C)(C)C", "note": "[2-ethoxy-2-methylpropane]", "values": [{"measurement": "vapor or sublimation pressure", "result": "31.63 ± 0.17 kPa and 31.64 ± 0.17 kPa"}]}
{"smiles": "C=CCCCC", "note": "[hex-1-ene]", "values": [{"measurement": "vapor or sublimation pressure", "result": "44.96 ± 0.28 kPa and 44.94 ± 0.28 kPa"}]}
{"smiles": "Cc1ccccc1", "note": "[toluene]", "values": [{"measurement": "vapor or sublimation pressure", "result": "7.869 ± 0.07 kPa and 7.872 ± 0.07 kPa"}]}
